“Also recorded” adds a separate entry of the source.
Key:
Collagen - Rat tail = target: T1, Collagen - Rat tail (Rattus norvegicus, UniProt P02454+P02466); test: Collagen fibrillogenesis assay (turbidity, 405 nm plate reader); type: biochemical; conditions: for inhibition of collagen fibrillogenesis / collagen fibril formation: increasing doses of polymer
T1 construct: purchased Corning; host or cells: rat tail
Procedure: Collagen fibrillogenesis was undertaken using collagen acquired from Corning to assess the ability of carrageenans with different degrees of sulphation, gellan gum (LA) and heparan sulphate on their ability to alter fibrillogenesis.
• PBS - Dulbecco’s PBS pH 7.4 • Carrageenans (iota and kappa) (Sigma) • (CGLA) (Kelcogel; Lot #: 5C1623A) • Heparan sulphate (Tinzaparin - mw ~ 9000) • Collagen - Rat tail - Corning 4.04 mg/ml • Deionised water
1. Preparation of stock solutions: • a. A 0.2% (w/v) solution of both carrageenans, gellan and heparan in water were prepared. (0.1 g polymer in 50 ml water) • b. Mixtures were stirred until fully dispersed/hydrated. (prevent water loss by covering the beaker)
2. Preparation of Buffers: • a. PBS diluent buffer; • i. To 200 ml deionised water add sodium phosphate (0.35 g) (0.348 g)and sodium chloride (2.05 g) (2.061 g) • ii. Adjust pH to 7.40 and adjust final volume to 250 ml. • iii. Store at room temperature. • b. PBS reaction buffer; • i. To 200 ml deionised water add sodium phosphate (2.07 g) (2.081 g) and sodium chloride (4.09 g) (4.091 g) • ii. Adjust pH to 7.40. • iii. Add deionised water to create a final volume of 250 ml. • iv. Store at room temp.
3. Collagen fibrillogenesis assay: • a. Pipette […] of buffer (PBS) into rows A and B for blanks. • b. Standard curve generated in a dilution plate. Add 150 ml of each preparation into C1, D1 and E1. • c. Add 150 mL of sample to rows F1, G1 and H1. • d. Add […] of buffer (PBS) to the additional columns 2 to 12. • e. Using a multi-channel pipette, preform a 2-fold dilution by transferring […] from column 1 to column 2. Continue serial diluting through to column 12. Discard the extra […] from column 12. • f. Calculate volume of collagen needed to make 10 ml (enough for 1 plate) at a concentration of […] in chilled water and gently mix.
Target conc. (0.8 mg/ml)Collagen stock conc. in mg/ml × 10=ml of collagen required
10 ml- ?ml of collagen required= ??ml of water required • a. Add […] of collagen to each row (B to H). • b. Add 150 ml of phosphate buffer to all of the wells. • c. Incubate for 2-4 hrs at room temperature and analysed using 405 nm plate reader. (correct for the plate by using 570 nm reference)
Each sample was replicated 3 times, two polymers in each plate (2 plates total). Collagen standard and pbs only were obtained on each plate.

[1] = tested on: rat experimental model of glaucoma; test: Study 2: intraocular pressure in rat experimental model of glaucoma (IC TGFβ1); type: in vivo; conditions: 10 µl eye drop twice a day, day 14 to 28
Procedure: A rat experimental model of glaucoma was used. All rats received twice weekly intracameral (IC) injections of 3.5 µl 5 µg/ml TGFβ1 from the start of the experiment (day 0) until the end (day 28). This establishes the experimental glaucoma model.
Intraocular pressure (IOP) measures were taken twice weekly using a rebound tonometer, between the hours of 9-11am (to reduce circadian fluctuations in IOP) and before TGFβ injections were administered.
On day 14 rats then also received a single 10 µl eye drop (ED) of either a composition of the invention or a composition representing the standard of care. The eyedrops were administered by pipette, twice a day, every day between day 14 and day 28. Gellan fluid gels were prepared as describe above, and the various sulphated polysaccharides investigated (dextran sulphate, fucoidan, or heparan sulphate) were mixed into the fluid gel at a concentration of 1 mg/ml prior to administration as a single formulation eye drop.
The most common eye drop prescribed clinically for the treatment of glaucoma is latanoprost 50 µg/ml (Xalatan®). Therefore, this treatment was used in this study for the standard of care (SOC).
The groups investigated in the study were as follows: […]

T1 sequence (P02454 152-1207 limits assumed): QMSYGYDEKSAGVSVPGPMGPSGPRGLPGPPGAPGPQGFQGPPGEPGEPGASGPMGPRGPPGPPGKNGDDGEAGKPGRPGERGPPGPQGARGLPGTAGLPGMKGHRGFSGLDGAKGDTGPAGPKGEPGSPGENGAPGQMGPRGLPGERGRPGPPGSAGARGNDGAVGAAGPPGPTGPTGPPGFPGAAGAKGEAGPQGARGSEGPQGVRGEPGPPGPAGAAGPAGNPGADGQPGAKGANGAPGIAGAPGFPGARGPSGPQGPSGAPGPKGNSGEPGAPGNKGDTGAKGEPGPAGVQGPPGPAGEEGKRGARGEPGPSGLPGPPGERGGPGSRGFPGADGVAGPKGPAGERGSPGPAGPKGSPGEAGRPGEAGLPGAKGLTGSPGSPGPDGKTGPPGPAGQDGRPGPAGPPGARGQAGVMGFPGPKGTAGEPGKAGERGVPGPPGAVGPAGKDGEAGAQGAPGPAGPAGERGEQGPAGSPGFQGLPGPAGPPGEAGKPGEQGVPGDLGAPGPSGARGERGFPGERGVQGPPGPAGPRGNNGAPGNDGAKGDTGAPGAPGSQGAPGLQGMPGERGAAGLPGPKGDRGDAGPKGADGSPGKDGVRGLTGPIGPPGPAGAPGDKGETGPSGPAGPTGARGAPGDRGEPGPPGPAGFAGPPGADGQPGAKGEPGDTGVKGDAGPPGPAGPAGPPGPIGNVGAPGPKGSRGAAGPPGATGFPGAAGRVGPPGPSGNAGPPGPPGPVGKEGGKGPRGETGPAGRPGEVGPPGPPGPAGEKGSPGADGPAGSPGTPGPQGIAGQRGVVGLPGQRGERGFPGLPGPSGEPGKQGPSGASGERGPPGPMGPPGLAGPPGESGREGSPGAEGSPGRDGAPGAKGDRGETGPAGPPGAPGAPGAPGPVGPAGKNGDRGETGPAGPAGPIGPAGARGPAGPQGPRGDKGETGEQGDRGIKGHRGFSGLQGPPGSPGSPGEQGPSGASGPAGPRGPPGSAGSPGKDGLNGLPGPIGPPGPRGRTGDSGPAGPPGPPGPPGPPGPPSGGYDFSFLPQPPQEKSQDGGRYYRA
T1 sequence (P02466 86-1125 limits assumed): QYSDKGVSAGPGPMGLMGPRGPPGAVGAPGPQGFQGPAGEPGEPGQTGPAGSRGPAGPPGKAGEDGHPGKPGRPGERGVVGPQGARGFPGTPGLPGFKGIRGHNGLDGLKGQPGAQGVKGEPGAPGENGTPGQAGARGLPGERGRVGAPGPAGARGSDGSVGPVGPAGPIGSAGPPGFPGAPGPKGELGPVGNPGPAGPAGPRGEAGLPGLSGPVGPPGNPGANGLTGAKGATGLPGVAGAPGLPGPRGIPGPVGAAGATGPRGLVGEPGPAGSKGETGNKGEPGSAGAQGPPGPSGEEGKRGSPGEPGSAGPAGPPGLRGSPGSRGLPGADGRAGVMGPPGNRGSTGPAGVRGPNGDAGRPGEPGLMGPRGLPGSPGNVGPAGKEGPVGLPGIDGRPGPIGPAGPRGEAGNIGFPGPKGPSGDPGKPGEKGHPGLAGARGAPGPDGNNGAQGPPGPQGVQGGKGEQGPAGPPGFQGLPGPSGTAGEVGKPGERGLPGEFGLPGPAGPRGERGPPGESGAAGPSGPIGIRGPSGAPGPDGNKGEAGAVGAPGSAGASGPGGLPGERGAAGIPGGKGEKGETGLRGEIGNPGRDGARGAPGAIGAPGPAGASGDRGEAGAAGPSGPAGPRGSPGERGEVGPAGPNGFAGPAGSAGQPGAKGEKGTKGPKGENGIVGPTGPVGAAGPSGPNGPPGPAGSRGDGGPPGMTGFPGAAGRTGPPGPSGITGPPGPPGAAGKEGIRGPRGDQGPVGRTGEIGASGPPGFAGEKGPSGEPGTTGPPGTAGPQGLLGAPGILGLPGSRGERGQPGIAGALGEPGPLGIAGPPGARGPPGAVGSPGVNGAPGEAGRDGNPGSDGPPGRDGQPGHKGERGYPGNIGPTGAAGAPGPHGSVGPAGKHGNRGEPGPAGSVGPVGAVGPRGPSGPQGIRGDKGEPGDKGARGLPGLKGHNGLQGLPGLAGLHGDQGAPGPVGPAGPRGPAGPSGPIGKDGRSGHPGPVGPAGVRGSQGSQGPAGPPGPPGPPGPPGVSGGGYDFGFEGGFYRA

| Compound | inhibition of collagen fibrillogenesis / collagen fibril formation (Collagen - Rat tail) | dose required to achieve a 50% reduction in turbidity (rank order; higher degree of sulphonation requires lower dose) (Collagen - Rat tail) | IOP compared to glaucomatous eyes without any treatment [1] |
| --- | --- | --- | --- |
| heparan sulphate | inhibit collagen fibrillogenesis (indicative of an anti-fibrotic activity) in a dose-dependent manner; also recorded: inhibit collagen fibril formation |  |  |
| dextran sulphate | dose-dependent ability to inhibit collagen fibrillogenesis |  |  |
| gellan |  | lota > lambda > gellan |  |
| iota carrageenan | inhibit collagen fibril formation | lota > lambda > gellan |  |
| kappa carrageenan | inhibit collagen fibril formation |  |  |
| carrageenan | inhibit collagen fibrillogenesis (indicative of an anti-fibrotic activity) in a dose-dependent manner |  |  |
| CC(C)OC(=O)CCC/C=C\C[C@@H]1[C@@H](CC[C@@H](O)CCc2ccccc2)[C@H](O)C[C@@H]1O [SOC, latanoprost] |  |  | significantly reduced IOP |

— patent publication US20230210891A1, “POLYSACCHARIDE COMPOSITIONS AND THERAPEUTIC GELS” (The University of Birmingham, priority 2020, published 2023)
